Some results are limits rather than exact numbers.

The record followed here is patent US20250353841A1 (BIOGEN MA INC., priority 2022, published 2025).

In this test the test system is mutant Huntington (HTT) protein. Description: HTT Mutant HTRF iPSC assay (mHTT protein lowering). It counts as cell-based. The conditions noted are these: human iPSC derived from a HTT patient with a poly-Q49 mutation. In general terms: In TR-FRET formats the signal depends on donor and acceptor labels being close together.

As for `COc1cc(-c2cc(C)c3nc(C)cn3n2)cn2cc([C@H]3[C@@H]4CN(C)C[C@@H]43)nc12` [Compound 539, 6-[8-methoxy-2-[(1S,5R)-3-methyl-3-azabicyclo[3.1.0]hexan-6-yl]imidazo[1,2-a]pyridin-6-yl]-2,8-dimethyl-imidazo[1,2-b]pyridazine], the IC50 was below 100 nM.
`Cc1cn2nc(-c3cc(F)c4nc(N5CCNCC5)cn4c3)cc(C)c2n1` [Compound 127, 6-(8-fluoro-2-piperazin-1-yl-imidazo[1,2-a]pyridin-6-yl)-2,8-dimethyl-imidazo[1,2-b]pyridazine] displayed an IC50 of 1000 to 9000 nM.
The compound `Cc1cn2nc(-c3cc(F)c4nc(C5CCNC6(CC6)C5)nn4c3)cc(C)c2n1` (centres unmarked) [Compound 454, 6-(2,8-dimethylimidazo[1,2-b]pyridazin-6-yl)-8-fluoro-2-(4-azaspiro[2.5]octan-7-yl)-[1,2,4]triazolo[1,5-a]pyridine] came in with an IC50 of 100 to 1000 nM.
The same measure for `Cc1cn2nc(-c3cc(F)c4nc(NC(=O)C5CCCNC5)cn4c3)cc(C)c2n1` (centres unmarked) [Compound 248, N-(6-(2,8-dimethylimidazo[1,2-b]pyridazin-6-yl)-8-fluoroimidazo[1,2-a]pyridin-2-yl)piperidine-3-carboxamide]: below 100 nM.
As for `Cc1cn2nc(-c3cc(F)c4nc(C5CCNCC5)nn4c3)cc(C)c2n1` [Compound 150, 6-(2,8-dimethylimidazo[1,2-b]pyridazin-6-yl)-8-fluoro-2-(4-piperidyl)-[1,2,4]triazolo[1,5-a]pyridine], the figure is below 100 nM; as for `Cc1cn2nc(-c3cc(OC(F)(F)F)c4nc(C5CCNCC5)cn4c3)cc(C)c2n1` [Compound 549, 2,8-dimethyl-6-(2-(piperidin-4-yl)-8-(trifluoromethoxy)imidazo[1,2-a]pyridin-6-yl)imidazo[1,2-b]pyridazine], 100 to 1000 nM; as for `COc1cc(-c2cc(C)c3nc(C)nn3c2)cc2cn(C3CCNCC3)nc12` [Compound 547, 6-(7-methoxy-2-(piperidin-4-yl)-2H-indazol-5-yl)-2,8-dimethyl-[1,2,4]triazolo[1,5-a]pyridine], 1000 to 9000 nM.
Compound `Cc1cc(-c2cc(F)c3nn(C4CCNCC4)cc3c2)nc2cn(C)nc12` [Compound 353, 5-(7-fluoro-2-(piperidin-4-yl)-2H-indazol-5-yl)-2,7-dimethyl-2H-pyrazolo[4,3-b]pyridine] returned an IC50 of 100 to 1000 nM.
For `Cc1cn2nc(-c3cc(F)c4nn([C@H]5[C@@H]6CNC[C@@H]65)cc4c3)cc(C)c2n1` [Compound 361, 6-[2-[(1R,5S)-3-azabicyclo[3.1.0]hexan-6-yl]-7-fluoro-indazol-5-yl]-2,8-dimethyl-imidazo[1,2-b]pyridazine], the IC50 is below 100 nM.
As to `Cc1cn2cc(-c3cc(F)c4nn(C5CCNCC5)nc4c3)cc2c(C)n1` [Compound 378, 6-(1,3-dimethylpyrrolo[1,2-a]pyrazin-7-yl)-4-fluoro-2-(piperidin-4-yl)-2H-benzo[d][1,2,3]triazole], the IC50 lay within 100 to 1000 nM.
As for `Cc1cn2nc(-c3cc(F)c4nc(NC(=O)C5COC5)cn4c3)cc(C)c2n1` [Compound 256, N-(6-(2,8-dimethylimidazo[1,2-b]pyridazin-6-yl)-8-fluoroimidazo[1,2-a]pyridin-2-yl)oxetane-3-carboxamide], the figure is 100 to 1000 nM; as for `Cc1cn2nc(-c3cc(F)c4nc(C56CCC(N)(CC5)CC6)cn4c3)cc(C)c2n1` [Compound 108, 4-(6-(2,8-dimethylimidazo[1,2-b]pyridazin-6-yl)-8-fluoroimidazo[1,2-a]pyridin-2-yl)bicyclo[2.2.2]octan-1-amine], below 100 nM; as for `Fc1cc(-c2ccc3nscc3c2)cn2cc(C3CCNCC3)nc12` [Compound 33, 5-(8-fluoro-2-(piperidin-4-yl)imidazo[1,2-a]pyridin-6-yl)benzo[c]isothiazole], 1000 to 9000 nM.
In the case of `Cc1cn2nc(-c3cn4cc(C5CCCNC5)cc(F)c4n3)cc(C)c2n1` (centres unmarked) [Compound 134, 6-(8-fluoro-6-(piperidin-3-yl)imidazo[1,2-a]pyridin-2-yl)-2,8-dimethylimidazo[1,2-b]pyridazine], the IC50 lay in the range of 1000 to 9000 nM.
The same measure for `Cc1cn2nc(-c3cc(F)c4nc(C5CCN(C6COC6)CC5)cn4c3)cc(C)c2n1` [Compound 99, 6-(8-fluoro-2-(1-(oxetan-3-yl)piperidin-4-yl)imidazo[1,2-a]pyridin-6-yl)-2,8-dimethylimidazo[1,2-b]pyridazine]: below 100 nM; for `Cc1cn2nc(-c3cc(F)c4nc(C5CCN(C6CC6)CC5)cn4c3)cc(C(F)F)c2n1` [Compound 167, 6-(2-(1-cyclopropylpiperidin-4-yl)-8-fluoroimidazo[1,2-a]pyridin-6-yl)-8-(difluoromethyl)-2-methylimidazo[1,2-b]pyridazine]: below 100 nM; for `Cc1cn2nc(-c3cc(F)c4[nH]c(C5CC6CCC(C5)N6)nc4c3)cc(C)c2n1` (centres unmarked) [Compound 428, 6-(2-(8-azabicyclo[3.2.1]octan-3-yl)-7-fluoro-1H-benzo[d]imidazol-5-yl)-2,8-dimethylimidazo[1,2-b]pyridazine]: below 100 nM.
As for `Cc1cn2nc(-c3cc(F)c4nc(NC(=O)CC5CCCCN5)cn4c3)cc(C)c2n1` (centres unmarked) [Compound 274, N-(6-(2,8-dimethylimidazo[1,2-b]pyridazin-6-yl)-8-fluoroimidazo[1,2-a]pyridin-2-yl)-2-(piperidin-2-yl)acetamide], the figure is below 100 nM; as for `COc1cc(-c2cc(C)c3nc(C)cn3n2)cn2cc(C3CCNCC3)nc12` [Compound 538, 6-(8-methoxy-2-(piperidin-4-yl)imidazo[1,2-a]pyridin-6-yl)-2,8-dimethylimidazo[1,2-b]pyridazine], below 100 nM.
For `Cc1cn2nc(-c3cc(F)c4nc(NC(=O)C5CN(C6CC6)C5(C)C)cn4c3)cc(C)c2n1` (centres unmarked) [Compound 285, 1-cyclopropyl-N-(6-(2,8-dimethylimidazo[1,2-b]pyridazin-6-yl)-8-fluoroimidazo[1,2-a]pyridin-2-yl)-2,2-dimethylazetidine-3-carboxamide], the IC50 fell in the range of 100 to 1000 nM.
As for `Cc1cn2nc(-c3cc(F)c4nc(C5CCNC(C)(C)C5)cn4c3)cc(C)c2n1` (single isomer, unassigned) [Compound 234], the figure is below 100 nM.
As for `CCc1cc(-c2cc(F)c3nn(C4CCN(C)CC4)cc3c2)nn2cc(C)nc12` [Compound 357, 8-ethyl-6-(7-fluoro-2-(1-methylpiperidin-4-yl)-2H-indazol-5-yl)-2-methylimidazo[1,2-b]pyridazine], the IC50 was 100 to 1000 nM.
The same measure for `Cc1cn2nc(-c3cc(F)c4[nH]c(C5C6CNCC65)nc4c3)cc(C)c2n1` (centres unmarked) [Compound 429, 6-(2-(3-azabicyclo[3.1.0]hexan-6-yl)-7-fluoro-1H-benzo[d]imidazol-5-yl)-2,8-dimethylimidazo[1,2-b]pyridazine]: below 100 nM.
As for `CCc1c[nH]c2ncc(-c3cc(F)c4nc(C5CCNCC5)cn4c3)cc12` [Compound 40, 6-(3-ethyl-1H-pyrrolo[2,3-b]pyridin-5-yl)-8-fluoro-2-(piperidin-4-yl)imidazo[1,2-a]pyridine], the figure is 1000 to 9000 nM.
The same measure for `Fc1cccc2sc(-c3cc(F)c4nc(C5CCNCC5)cn4c3)cc12` [Compound 43, 8-fluoro-6-(4-fluorobenzo[b]thiophen-2-yl)-2-(piperidin-4-yl)imidazo[1,2-a]pyridine]: 1000 to 9000 nM; for `Cc1nc2c(C(F)(F)F)cc(-c3cc(F)c4nn(C5CCNCC5)nc4c3)nn2n1` [Compound 391, 6-(7-fluoro-2-(piperidin-4-yl)-2H-benzo[d][1,2,3]triazol-5-yl)-2-methyl-8-(trifluoromethyl)-[1,2,4]triazolo[1,5-b]pyridazine]: below 100 nM; for `Cc1cn2nc(-c3cc(F)c4nc([C@H]5C[C@@H](C)N[C@@H](C)C5)cn4c3)cc(C)c2n1` [Compound 215, 6-(2-((2S,4r,6R)-2,6-dimethylpiperidin-4-yl)-8-fluoroimidazo[1,2-a]pyridin-6-yl)-2,8-dimethylimidazo[1,2-b]pyridazine]: below 100 nM.
Consider `Cc1cn2nc(-c3cc(F)c4nc(C5CCN(C)C5)cn4c3)cc(C)c2n1` (single isomer, unassigned) [Compound 186], for which the IC50 fell in the range of 100 to 1000 nM.
For `Cc1cn2nc(-c3cc(F)c4nc(C5CCN(C)C6(CC6)C5)cn4c3)cc(C)c2n1` (single isomer, unassigned) [Compound 209], the IC50 is below 100 nM.
The same measure for `Cc1cn2cc(-c3cc(F)c4nc(C5CCNCC5)nn4c3)cc2c(C)n1` [Compound 431, 6-(1,3-dimethylpyrrolo[1,2-a]pyrazin-7-yl)-8-fluoro-2-(piperidin-4-yl)-[1,2,4]triazolo[1,5-a]pyridine]: 100 to 1000 nM.
As for `Cc1cn2nc(-c3cc(F)c4nc(C5CCN(C(=O)C6CC6)CC5)cn4c3)cc(C)c2n1` [Compound 121, cyclopropyl(4-(6-(2,8-dimethylimidazo[1,2-b]pyridazin-6-yl)-8-fluoroimidazo[1,2-a]pyridin-2-yl)piperidin-1-yl)methanone], the figure is 100 to 1000 nM; as for `CN[C@@H]1CCC[C@H](c2cn3cc(-c4cc(F)c5nn(C)cc5c4)cc(F)c3n2)C1` (stereo in doubt) [Compound 162, rel-(1R,3S)-3-(8-fluoro-6-(7-fluoro-2-methyl-2H-indazol-5-yl)imidazo[1,2-a]pyridin-2-yl)-N-methylcyclohexan-1-amine], 100 to 1000 nM.
As for `Cc1cn2nc(-c3cc(F)c4nc(NC(=O)[C@H]5[C@@H]6CNC[C@@H]65)cn4c3)cc(C)c2n1` [Compound 246, (1R,5S,6r)-N-(6-(2,8-dimethylimidazo[1,2-b]pyridazin-6-yl)-8-fluoroimidazo[1,2-a]pyridin-2-yl)-3-azabicyclo[3.1.0]hexane-6-carboxamide], the IC50 is below 100 nM.
`Cc1cn2nc(-c3cc(F)c4nc(C5CCNCC5)cn4c3)cc(C)c2n1` [Compound 1]: the IC50 was below 100 nM.
The same measure for `Cc1cn2nc(-c3cc(F)c4nc(C5CCNCC5)cn4c3)ccc2n1` [Compound 2, 6-(8-fluoro-2-(piperidin-4-yl)imidazo[1,2-a]pyridin-6-yl)-2-methylimidazo[1,2-b]pyridazine]: below 100 nM.

By IC50 is commonly meant the midpoint of a concentration-inhibition curve.
